Source: US20120128728A1 (NOVARTIS PHARMA AG, priority 2005, published 2012)

Columns and labels:
in vivo [1] = experiment: in vivo; set-up: species or system dogs; conditions: both sexes, dog
From the text: On Study Days 1 and 14, blood samples for toxicokinetic analysis were obtained from designated animals in the vehicle and high-dose groups before exposure and 2, 4, 8, 12, and 24 hr after exposure, and daily during the 14-day recovery period. Main-study animals were euthanized and necropsied on day 15, recovery animals on day 29, during which the right anterior lobe of each animal was obtained for toxicokinetic analysis.

Aspergillus fumigatus = test system: Aspergillus fumigatus
Description: This study had three groups, with 10 rabbits each. Group 1 received the immunosuppressive regimen of intravenous cytarabine and methyl prednisolone and a sham saline inoculation. Group 2 received the immunosuppressive regimen and 5×10^7 conidia of A. fumigatus. […] The immunosuppressive agents were administered by intravenous injection. Antibiotics to prevent bacterial infections were administered by intravenous injection or in the drinking water.
Evaluations performed in this study included mortality and morbidity, daily clinical observations, body weights, clinical pathology (hematology and clinical chemistry), gross necropsy, lung weight, enumeration of visible lung infarctions, fungal colony forming unit (CFU) measurements in BAL, blood, and lung tissue samples, and histopathological evaluation of lung tissue.
There were 3 study groups with 10 rabbits in each group in this experiment. Group 1 received the immunosuppressive regimen of intravenous cytarabine and methyl prednisolone and a sham saline inoculation. Group 2 received the immunosuppressive regimen and 5×10^7 conidia of A. fumigatus.
New Zealand White SPF rabbits that were dual catheterized with vascular access ports (VAPs) and weighing between 2.5 to 4.0 kg at study initiation were used. The rabbits were randomly assigned to treatment groups using a computerized body weight stratification procedure.
In this regard, powder from a blister pack was actuated from the inhaler into a chamber. The small animal ventilator pushed the dispersed powder into an endotracheal tube. The delivery efficiency to the animal was determined by measuring the gravimetric mass of the powder collected on a filter connected to the end of the endotracheal tube. The mass collected on the filter was normalized to the actual blister pack fill weight. The delivery efficiency was used to calculate the estimated dose (mg) for the in vivo experiments.

in vivo [2] = experiment: in vivo; set-up: species or system rabbits; conditions: rabbit
Description: This Example describes results obtained in the plasma and lung tissue only.
The lot number of the formulation was N020042. The test powder was hand-filled into blister packs and contact sealed at 340° F. for 1.0 second, with an approximate fill weight of approximately 1.5 mg per blister pack.
(§1) The test inhalation was administered in a single inhalation exposure.
The study included two groups each comprised of 48 rabbits. […] Four animals were sacrificed at each of the following time points after dosing: 0.16, 0.3, 1, 1.3, 2, 3, 4, 5, 14, 21, 28, and 45 days. Plasma and lung tissue were collected and analyzed for amphotericin B content using LC/MS-MS. Lower limits of quantitation (LLQ) of the assays were 5 ng/mL in plasma and 20 ng/g in lung tissue.

[3] = test system: Aspergillus fumigatus, NIH strain 4215; experiment: Efficacy of inhaled amphotericin B for prophylaxis in rabbits (Example 13); assay type: in vivo, New Zealand White SPF rabbits; conditions: for survival rate: day 14
Description: The test powder was hand-filled into blister packs and contact sealed at 340° F. for 1.0 second, with an approximate fill weight of approximately 1.5 mg per blister pack.
as §1
Aspergillus fumigatus, NIH strain 4215, was obtained from American Type Culture Collection (ATCC). Inoculum of A. fumigatus was prepared on Sabouraud dextrose flasks. Conidia were harvested with a solution of 0.025% Tween 20 in 0.9% sodium chloride, transferred to a conical tube, washed, and counted. The concentration was adjusted with the same solution to achieve 5×10^7 conidia in 300 μL. Animals in challenged groups were inoculated with the same volume. Inoculation was performed on anesthetized rabbits. Rabbits were intubated using an endotracheal tube and the inoculum was then administered intratracheally with a tuberculin syringe attached to a catheter introduced through the endotracheal tube.
The study included 6 groups each comprised of 10 rabbits. These groups are described in Table 6, below. All groups were immunosuppressed and treated with antibiotics to prevent bacterial infections. The immunosuppression and antibiotic cover regimen is detailed in Table 7, below.

[4] = Dry powder toxicology study in rats with daily or weekly dosing (Example 15); assay type: in vivo; conditions: dosages up to 30.60 mg/kg/dose amphotericin B alone
Description: The information obtained was used to select dose levels and/or dose regimens for subsequent toxicity studies.
The following investigations were performed: clinical observations, body weight, hematology, clinical chemistry, organ weight, histopathology, toxicokinetics, and bioanalytical chemistry.

[5] = Toxicity of two dry powders in rats with daily or weekly dosing (Example 16); assay type: in vivo
Description: The following investigations were performed: clinical observations, body weight, respiratory measurements, hematology, clinical chemistry, histopathology, toxicokinetics, and bioanalytical chemistry.

[6] = Toxicity of two dry powders in beagle dogs, once weekly inhalation (Example 17); assay type: in vivo
Description: The animals were dosed using a close fitting face mask (fitted with a mouth tube) system for 30 min per day according to Table 15, above.

[7] = Fourteen-day inhalation toxicity/toxicokinetic study in rats; assay type: in vivo; conditions: both sexes, rat, lung tissue, inhaled, recovery period, read-out: lung tissue elimination half-life (t1/2) (converted)
Description: Recovery animals were retained for a 14-day postdose recovery period. On study days 1 and 14, blood samples for toxicokinetic analysis were obtained from designated animals in the vehicle only and high-dose (25 mg/kg) groups at predose, 2 hr postdose, and 4 hr postdose. Toxicokinetic blood samples were also obtained during the 14-day recovery period on recovery Days 7 and 14 for males, and on recovery Day 14 only for females due to their lower body weight.
All study animals were subjected to a detailed necropsy on completion of the 14-day treatment period (Day 15) or completion of the 14-day recovery period (Day 29). During necropsy, lung tissue samples for toxicokinetic analysis were obtained from each animal.

fungus = experiment: Minimum inhibitory concentration (MIC)
Description: The MIC may be expressed as a particular concentration value or as a range of concentrations. […] As used herein, unless otherwise specified, the MIC value shall be taken to be the particular value when a particular MIC value is determined and shall be taken to be a midrange value when a range of MIC values is determined. MIC determinations may be made according to processes known in the art.

[8] = rat, in vivo
Description: (§2) The animals were dosed using a snout only exposure technique for about 60 min on 5 occasions at weekly intervals. Recovery animals were retained for an approximate one month recovery period.
(§3) The following investigations were performed: clinical observations, body weight, food consumption, ophthalmology, hematology, clinical chemistry, urinalysis, histopathology, and toxicokinetics.

[9] = One month inhalation toxicity study in rats
Description: as §2, §3

[10] = Group 3: 1.5 mg/kg inhaled 1 day before 5×10^7 conidia
[11] = Group 3: 1.5 mg/kg inhaled at day −12
[12] = Group 4: 0.15 mg/kg inhaled at day −1
[13] = Group 5: 0.5 mg/kg inhaled at day −1
[14] = Group 6: 1.5 mg/kg inhaled at Day −1

In the case of `C[C@@H]1[C@H](O)[C@@H](C)/C=C/C=C/C=C/C=C/C=C/C=C/C=C/[C@H](O[C@@H]2O[C@H](C)[C@@H](O)[C@H](N)[C@@H]2O)C[C@@H]2O[C@](O)(C[C@@H](O)C[C@@H](O)[C@H](O)CC[C@@H](O)C[C@@H](O)CC(=O)O[C@H]1C)C[C@H](O)[C@H]2C(=O)O` [amphotericin B], the half-life (in vivo [1]) is reported as 18.8 days, the “Kaplan-Meier survival compared with Group 2 (A. fumigatus only)” value (Aspergillus fumigatus; Group 3) is reported as “significant (p<0.05) increase” and the “animals observed wheezing, gasping, or having rales” value (Aspergillus fumigatus; Group 3) is reported as “five”. For the same molecule, the “animals with more than 20 grossly visible lung infarctions” value (Aspergillus fumigatus; Group 3, gross necropsy) was 20%, the “animals with visible lung infarction” value (Aspergillus fumigatus; Group 3, gross necropsy) was 80% and the “animals with mycotic hyphae present in lung” value (Aspergillus fumigatus; Group 3, histopathology) was 50%. For the same molecule, the average survival time (Aspergillus fumigatus; [10]) was 13 days, the “median day of death or sacrifice” value (Aspergillus fumigatus; [10]) was 14 days and the “animals having 1 or more tissues positive for fungus” value (Aspergillus fumigatus; Group 3, BAL, blood, lung tissue culture, 9 animals) was 44%. The “effect against A. fumigatus induced mortality” value (Aspergillus fumigatus; conclusion) was “prophylactic effect”, the “animals surviving beyond nine days” value (Aspergillus fumigatus; immunosuppressed, exposed, treated rabbits (FIG. 20)) was 100% and the Tmax (in vivo [2]; 0.25 mg/kg) was 1.33 days. For the same molecule, the “group mean lung Cmax” value (in vivo [2]; 0.25 mg/kg) was 8.0 µg/g, the half-life (in vivo [2]; 0.25 mg/kg) was 12.2 days and the Tmax (in vivo [2]; 1.5 mg/kg) was 1 days. For the same molecule, the “group mean lung Cmax” value (in vivo [2]; 1.5 mg/kg) was 46.6 µg/g, the half-life (in vivo [2]; 1.5 mg/kg) was 10.6 days and the median survival time [3, 11] was 10 days. For the same molecule, the survival rate [3, 11] was 0%, the median survival time [3, 12] was 9 days and the survival rate [3, 12] was 10%. The median survival time [3, 13] was 10.5 days, the survival rate [3, 13] was 10% and the median survival time [3, 14] was 10 days. For the same molecule, the survival rate [3, 14] was 10%, the “Logrank pairwise comparison of Groups 3-6 with untreated Group 2” value ([3]; all doses and treatment days) was “significant (P<0.001) protection” and the premature demise [4] was 3 animals. For the same molecule, the clinical signs ([5]; dosages up to 14.80 mg/kg amphotericin B alone) was “clinical signs indicative of respiratory distress”, the necropsy findings ([5]; rats, both powders) was “no notable necropsy findings” and the “changes in body weight, hematology, clinical chemistry, food consumption, respiratory measurement” value [6] was “no significant changes”. For the same molecule, the clinical signs ([6]; all dose groups including vehicle control) was “salivation”, the “necropsy or histopathology findings attributable to administration” value ([6]; doses up to 8.2 (3.2) mg/kg weekly) was “no necropsy or histopathology findings” and the half-life ([7]; 1.1 mg/kg dose level) was 22 days. The half-life ([7]; 12.4 mg/kg dose level) was 34 days, the “midrange MIC value” (fungus) was “about 2.25 μg/g” and the “effects on body weight, food consumption, ophthalmology, hematology, clinical chemistry, or organ weights” value [8] was “no adverse effects”. The “mortalities during the study” value ([9]; 198 M and 198 F rats, one death pretrial) was 181, the “animals with pneumonia/pleuritis, collapse or alveolar inflammation” value ([9]; Groups 3 to 6, Main Study) was 17/110 and the “time to maximum plasma concentration after cessation of dosing” value ([9]; rats, toxicokinetics) was ≤ 4 h.
